Reference: patent publication EP2131651B1 (Sarentis Therapeutics, Inc., priority 2007, dated 2013)
Square brackets hold non-standard residues; d marks the D form. Peptide text beside a SMILES is read from it. Ala(indol-4-yl) = N[C@@H](Cc1cccc2[nH]ccc12)C(=O)O; NMeR = CN[C@@H](CCCNC(=N)N)C(=O)O; Tle = CC(C)(C)[C@H](N)C(=O)O; Dab = NCC[C@H](N)C(=O)O

Key:
intact rabbit cornea = experiment: In vitro cytotoxicity study, percentage of living cells; type: cell-based; conditions: for corneal cells died, compared to untreated cells: 0.1, 0.25 and 0.5 mg/ml, 24 hour period, FIGURE 10B; for death of corneal cells: FIGURE 10A
Description: In vitro cytotoxicity studies were performed in intact rabbit cornea. Proparacaine (0.5 mM, 1 mM, 5 mM, and 10 mM), tetracaine (0.5 mM, 1 mM, 5 mM, and 10 mM), NT71 (0.1 mg/ml (0.13 mM), 0.25 mg/ml (0.32 mM), and 0.5 mg/ml (0.63 mM)), NT72 (0.1 mg/ml (0.15 mM), 0.25 mg/ml (0.38 mM), and 0.5 mg/ml (0.76 mM)), and 70% MeOH were added to intact rabbit corneas. The percentage of living cells was determined over a 24 hour period using light microscopy and fluorescence. As apparent from FIGURE 10A, tetracaine was cytotoxic to the corneal cells at concentrations as low as 0.5 mM, resulting in the death of about half of the corneal cells observed.

[1] = tested on: primary rabbit corneal epithelial cells; experiment: In vitro scratch assay, cell migration and scratch closure; type: cell-based; conditions: 0.1 mg/ml and 0.5 mg/ml; FIGURES 7-9
Description: The limbus was removed from both eyes of anesthetized rabbits and dissected to include 1.0 to 1.5 mm peripheral cornea and 1.0 to 1.5 mm beyond the anatomical limbus. Each limbus was divided into four small segments. Two segments were used for each 60 mm square plate.
Cultured rabbit corneal epithelial cells were utilized to measure the closure of a scratch made in a confluent epithelial monolayer in the presence of varying doses of the test compounds (0.1 mg/ml to 10 mg/ml). Uniform scratches were made in confluent monolayers of primary rabbit corneal epithelial cells ("in vitro scratch assay").
Individual cell migration assays were performed in the presence of the test compounds and compared with standard doses of tetracaine and proparacaine. Movement of cells from the edge of the scratch (wound) toward the middle of the scratch (wound) were measured over 24 hours. […] Cells in which NT71 and NT72 were added migrated at least 40 µm, alternatively at least 50 µm, alternatively at least 60 µm, alternatively at least 70 µm over 24 hours.
There was very little closure of the wounds in which proparacaine and tetracaine were added. […] In contrast, control cells substantially closed the defect within 24 hours.

rabbit cornea [2] = experiment: In vivo superficial keratotomy, administration every 4 hours for 5 days; set-up: species or system rabbits
Text: Anesthetized rabbits were placed under an operating microscope, a sterile lid speculum placed in the right eye, and a 6.5 mm trephine used to make a partial thickness epithelial cut centered on the pupil. A sterile beaver blade was used to remove the epithelium within the area of demarcation. A single drop of moxifloxacin 0.1% was instilled at the end of the procedure. The speculum was removed and the animal allowed to recover from the systemic anesthesia. The topical agent under investigation was placed in the eye every 4 hours for 5 days. […] The control animals underwent the same surgical procedure. At the end of the procedure, 0.5% proparacaine or vehicle was instilled in the eye every 4 hours.
Fluorescein (1%) was instilled into the eye at times 0, 1, 2, 6, 12, 36, 48, 72, 96, and 120 hours after the procedure and the size of the epithelial defect measured via slit lamp photography. The animals were scored for degree of blinking, tearing, conjunctival injection, anterior chamber inflammation, and intraocular pressure.

rabbit cornea [3] = experiment: In vivo superficial keratotomy, administration every 2 hours for 36 hours; set-up: species or system rabbits
Description: In vivo superficial keratotomy experiments were performed on rabbits to access healing effects in an animal model.
Starting with equivalent circular wounds of 6.5 mm diameter (33 mm^2), after 36 hrs of administration every 2 hours of 1 mg/mL NT71(SAR001), NT72 (SAR002), tetracaine or saline (control), the persistent epithelial defect (wound) size was: • Control (saline) 4 mm^2 • Tetracaine 14.4 mm^2 • SAR001 2.8 mm^2 • SAR002 4.8 mm^2

rabbit cornea [4] = experiment: Wound healing after excimer laser keratectomy; type: in vivo, rabbits
Description: Anesthetized rabbits were placed under an operating microscope, a sterile lid speculum placed in the right eye, and a 6.5 mm excimer laser ablation of 75 microns centered on the pupil was made using a Ladarvision 4000 excimer laser. A single drop of moxifloxacin 0.1 % was used at the end of the procedure. SAR001 (NT71, 0.1% w/w), SAR002 (NT72, 0.1 % w/w), or NT69 was instilled at the end of the procedure and repeated at 4 hour intervals. Control animals underwent the same surgical procedure. Standard doses of tetracaine (0.5% w/w) or proparacaine (not shown) were instilled at the end of the procedure and at 4 hour intervals thereafter.
Fluorescein (1%) was instilled into the right eye at times 0, 1, 2, 6, 12, 36, 48, 72, 96, and 120 hours after the procedure and the size of the epithelial defect measured via slit lamp photography. Degree of blinking, tearing, conjunctival injection, anterior chamber inflammation, and intraocular pressure were evaluated.

Question: `CN[C@@H](CCCNC(=N)N)C(=O)N[C@@H](CCN)C(=O)N1CCC[C@H]1C(=O)N[C@@H](Cc1cccc2[nH]ccc12)C(=O)N[C@H](C(=O)N[C@@H](CC(C)C)C(=O)O)C(C)(C)C` [NT71] (H-[NMeR][Dab]P[Ala(indol-4-yl)][Tle]L-OH) was tested. Which “corneal cells died, compared to untreated cells” value (intact rabbit cornea) did it give?
Answer: < 20%

Question: For `CC(C)C[C@H](NC(=O)[C@@H](NC(=O)[C@H](Cc1cccc2[nH]ccc12)NC(=O)[C@@H]1CCCN1C(=O)[C@H](N)CCCCN)C(C)(C)C)C(=O)O` [NT72] (H-[dK]P[Ala(indol-4-yl)][Tle]L-OH), which “corneal cells died, compared to untreated cells” value (intact rabbit cornea) is on record?
Answer: < 20%

Question: Which closure of scratch [1] does the source give for `CCCOc1ccc(C(=O)OCCN(CC)CC)cc1N` [proparacaine] here?
Answer: did not close

Question: And the “animals with incomplete disappearance of the defect” value (rabbit cornea [2]; at 96-120 hours, 0.5% proparacaine every 4 hours)?
Answer: 40%

Question: And the “time to disappearance of epithelial defect” value (rabbit cornea [2]; every 4 hours for 5 days, neurotensin analogs 0.6 mg/ml, proparacaine 0.5%)?
Answer: 96 to 120 h

Question: What about the “death of corneal cells” value (intact rabbit cornea; 5 mM) of the same molecule?
Answer: almost all

Question: `CCCCNc1ccc(C(=O)OCCN(C)C)cc1` [tetracaine] was tested. Which closure of scratch [1] did it give?
Answer: did not close

Question: And the “rate of scratch closure as compared to control” value [1]?
Answer: greatest delay in monolayer closure

Question: What about the “persistent epithelial defect (wound) size” value (rabbit cornea [3]; after 36 hrs, 1 mg/mL every 2 hours, starting wound 33 mm^2) of the same molecule?
Answer: 14.4 mm^2

Question: And the state of wound (rabbit cornea [3]; after 48 hours)?
Answer: residual epithelial defect was still present

Question: What about the “time to disappearance of epithelial defect” value (rabbit cornea [4]; instilled at 4 hour intervals, SAR001, SAR002 0.1% w/w, tetracaine 0.5% w/w, FIGURE 11) of the same molecule?
Answer: 96 to 110 h

Question: And the “animals with incomplete disappearance of the defect” value (rabbit cornea [4]; tetracaine 0.5% w/w at 4 hour intervals)?
Answer: 50%

Question: And the “death of corneal cells” value (intact rabbit cornea; 0.5 mM)?
Answer: about half

Question: And the “death of corneal cells” value (intact rabbit cornea; 1 mM)?
Answer: almost all
